PubChem BioAssay (NCI)
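Compound exposure: 48 hours, 5 concentrations, 96-well plates. GI50 marks 50% less growth. The concentration for full growth arrest is given as TGI.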

How the values were obtained:
Test in all cases: NCI-60 cell line screen, 48 h
A498 renal = system: A498 renal
ACHN renal = system: ACHN renal
CAKI-1 renal = system: CAKI-1 renal
COLO 205 colon = system: COLO 205 colon
DU-145 prostate = system: DU-145 prostate
HCC-2998 colon = system: HCC-2998 colon
NCI-H226 lung = system: NCI-H226 lung
OVCAR-4 ovarian = system: OVCAR-4 ovarian
RPMI-8226 leukemia = system: RPMI-8226 leukemia
UO-31 renal = system: UO-31 renal

Structure (SMILES)	GI50 (A498 renal) [µM]	TGI (A498 renal) [µM]	GI50 (ACHN renal) [µM]	TGI (ACHN renal) [µM]	GI50 (CAKI-1 renal) [µM]	TGI (CAKI-1 renal) [µM]	GI50 (COLO 205 colon) [µM]	TGI (COLO 205 colon) [µM]	GI50 (DU-145 prostate) [µM]	TGI (DU-145 prostate) [µM]	GI50 (HCC-2998 colon) [µM]	TGI (HCC-2998 colon) [µM]	GI50 (NCI-H226 lung) [µM]	TGI (NCI-H226 lung) [µM]	GI50 (OVCAR-4 ovarian) [µM]	TGI (OVCAR-4 ovarian) [µM]	GI50 (RPMI-8226 leukemia) [µM]	TGI (RPMI-8226 leukemia) [µM]	GI50 (UO-31 renal) [µM]	TGI (UO-31 renal) [µM]
CCC(Sc1nnc2c3ccccc3n(CC)c2n1)C(=O)Nc1ccccc1OC (stereo not drawn)	2.2	6.77	83.8	> 100	0.76	5.32	> 100	> 100	> 100	> 100	> 100	> 100	53.6	> 100	> 75.7	> 100	4.35	> 72.8	2.12	6.65
CN1CCN(c2ccc3c4c(cccc24)C(=O)N(CCN2CCN(CCCN4CCN(CCN5C(=O)c6cccc7c(N8CCN(C)CC8)ccc(c67)C5=O)CC4)CC2)C3=O)CC1	9.79	17.4	3.13	9.72	8.21	16.8	5.6	21.8	7.19	17	0.738	4.4	6	14.4	8.01	19.4	0.861	1.89		
Cn1c(=O)cc2c3c(c(NCCCO)ccc31)C(=O)c1ccccc1-2	1.77	> 100	1.21	> 100	1.79	> 100	3.86	> 100	7.62	> 100	5.23	> 100	3.01	> 100	7.89	> 100	2.89	> 100	1.09	> 100
COc1cnc2c(c1)C(=O)c1c-2n(CCCn2ccnc2)c(=O)c2cc(Cl)ccc12	0.113	0.557	0.0301	61.4	0.0255	> 100	0.0332	2.09	0.0432	> 100	0.382	> 100	0.0464	0.892	0.362	> 100	0.0504	0.987	0.0264	2.34
CCC[C@H](N[C@@H]1CCc2cc(F)cc(F)c2C1)C(=O)Nc1cn(C(C)(C)CNCC(C)(C)C)cn1	7.41	42.9	22.7	> 96.7	5.94	29	12.5	26.9	29.7	> 100	17.8	> 81.1	16.5	52.9	23.5	> 100	5.98	34.8	6.33	22.1
O=[N+]([O-])c1ccccc1N=Nc1c(O)[nH]c2ccccc12		> 61.6		23.7		> 54.7		> 100		> 89.8		> 100		> 59.1		> 61.1		> 100		> 52.8
CC(C)=CCc1c(O)cc(/C=C/c2cc(O)c3c(c2)C[C@@H]2C(C)(C)[C@H](O)[C@H](O)C[C@@]2(C)O3)cc1O	1.22	9.57	0.526	> 8.74	0.00267	> 5.6	1.37	3.82	1.96	> 10	1.29	4.17	1.99	> 10	0.831	4.08	< 0.001		< 0.001	4.92
CO[C@@H]1[C@@H](OC2OC(C)C(OC3CC(C)(O)C(OC(=O)CC(C)C)C(C)O3)C(N(C)C)C2O)[C@@H](CC=O)C[C@@H](C)C(=O)/C=C/C2O[C@H]2C[C@@H](C)OC(=O)C[C@H]1OC(C)=O (stereo partly drawn)		52		46.8				26.2		28		32		33.5		86.7		47.4		73.6
O=C1CCCC/C1=C/C=C/c1ccccc1		> 100		> 100		> 100		> 100		> 100		> 100		> 100		> 100		> 100		> 100
CCc1c2c(nc3cc4c(cc13)OCO4)-c1cc3c(c(=O)n1C2)COC(=O)[C@@]3(CC)OC(=O)CN	< 0.0107	0.166	< 0.01	< 0.01	< 0.01		0.133	1.13	< 0.01	0.0426	< 0.0112	0.194	< 0.01	< 0.01	0.0244	0.711	< 0.01	0.154	< 0.01	0.0794
N#Cc1ccccc1C#C/C=C\C#Cc1ccc(OCCCNC(=O)c2cc3ccccc3[nH]2)cc1	16.1	36.5	16.9	34.9	20.2	48	15.9	44.6	19.4	78.9	74.9	> 100	13.8	31.9	59	> 100			17	35.4
CC(=O)O[C@@H]1CO[C@H]2O[C@H]3[C@@H](C(C=O)=C[C@H](O)[C@@H]4C5=C(C(C)C)CC[C@]5(C)CC[C@@]34C)[C@@]2(O)C1=O		1.96		0.281		0.486		0.249		2.02		1.27		1.02		0.943		1.6		0.598
O=Cc1ccc(-c2ccc(-c3ccc(C=O)s3)o2)s1		0.732		> 100		1.31		37		> 100		51.5		2.46		> 100		> 100		> 100
CN1C(=O)CNC(=O)[C@H](NC(=O)c2nc3ccccc3cc2O)CSSC[C@H]1C(=O)NCCc1nc2ccccc2cc1O	> 100	> 100	15.3	38.7	> 46.6	> 78.1	2.94	12.7	5.19	23.2	15.7	> 75.9	17.3	65.2	25	> 73.1	14.5	62.3	13.7	46.1
